Test results published in article PMC3648997 (Bioorganic & medicinal chemistry letters, 2013).

Tests used:
Stability over 24 h = conditions: over a period of 24 h
Glutathione reactivity = conditions: 50 μM glutathione, over 48 h
Keap1 Kelch domain = Keap1 Kelch domain (Homo sapiens, UniProt Q14145); assay: SPR solution competition assay; format: binding
Sequence of Keap1 Kelch domain (Q14145 321-609 limits assumed): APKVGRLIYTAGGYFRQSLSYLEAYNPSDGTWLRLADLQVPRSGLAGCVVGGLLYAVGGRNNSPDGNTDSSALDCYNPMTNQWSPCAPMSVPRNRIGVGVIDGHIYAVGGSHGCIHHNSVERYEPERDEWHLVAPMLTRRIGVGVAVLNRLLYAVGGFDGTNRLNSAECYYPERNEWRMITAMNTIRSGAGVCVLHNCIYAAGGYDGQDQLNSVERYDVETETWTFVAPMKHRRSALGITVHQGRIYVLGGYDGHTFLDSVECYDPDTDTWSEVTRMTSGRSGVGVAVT

For `O=C(O)[C@H]1CCCC[C@H]1C(=O)N1CCc2ccccc2[C@H]1CN1C(=O)c2ccccc2C1=O` [(SRS)-5], which stability (Stability over 24 h) is on record?
Its stability is “highly stable”.

And the “thiol addition or decomposition” value (Glutathione reactivity)?
The value was “No thiol addition or decomposition could be detected”.

With `NC(=O)C1CCCCC1C(=O)N1CCc2ccccc2C1CN1C(=O)c2ccccc2C1=O` (centres unmarked) [corresponding amide] as the molecule, how does the “fold less active than (SRS)-5” value (Keap1 Kelch domain; relative to (SRS)-5) read?
The value was “about 20 fold”.

For `COC(=O)C1CCCCC1C(=O)N1CCc2ccccc2C1CN1C(=O)c2ccccc2C1=O` (centres unmarked) [corresponding methyl ester], which “Keap1 binding activity (in words)” value (Keap1 Kelch domain) is on record?
Its value is “completely inactive”.

With `O=C(O)C1CCCCC1C(=O)N1CCc2ccccc2C1CN1Cc2ccccc2C1=O` (centres unmarked) [lactam] as the molecule, how does the “Keap1 binding activity (in words)” value (Keap1 Kelch domain) read?
The value was “only slight decrease in Keap1 binding”.
